Reference: patent publication US10383869B2, “Treatment with opioid antagonists and mTOR inhibitors” (THE UNIVERSITY OF CHICAGO, priority 2008, dated 2019)
“And” between values parts separate entries of the source, which are not always exact repeats. Equal values may be shown once. Read-outs that look alike come from different tables or passages of the source.

Assays:
[1] = white crystalline powder, typically the bromide salt, as commercially provided; cited from earlier work
mTOR Complex 2 = experiment: VEGF-induced mTOR complex formation, anti-Rictor immunoprecipitation and immunoblot; type: cell-based; conditions: human EC, VEGF 100 nM 5 minutes, 1 hour pretreatment with 100 nM compound
Procedure: (§1) Analysis of mTOR Complex Formation and Regulation of Akt Phosphorylation—Human EC were serum starved for one hour and either untreated (control) or treated with VEGF (100 nM, 5 minutes) with or without pretreatment (1 hour) with 100 nM MNTX or 100 nM Temsirolimus. EC lysates were obtained and immunoprecipitated with anti-Raptor (mTOR Complex 1 component) or anti-Rictor (mTOR complex 2 component) antibody. The immunoprecipitated material was run on SDS-PAGE and immunoblotted with either anti-mTOR, anti-FKBP12, anti-Raptor, anti-SIN1 or anti-Rictor antibody. To investigate the regulation of Akt phosphorylation, human EC were serum starved for one hour and either untreated (control) or treated with VEGF (100 nM, 5 minutes) with or without pretreatment with the PI3 kinase inhibitor, LY294002 (10 μM, 1 hour), Src siRNA or Rictor (mTOR complex 2 component) siRNA. EC lysates were obtained, run on SDS-PAGE and immunoblotted with anti-pSer^473Akt, anti-pThr^308Akt or anti-Akt antibody.

[2] = tested on: human pulmonary microvascular endothelial cells (HPMVEC); experiment: Human pulmonary microvascular EC proliferation assay (VEGF-induced); type: cell-based
Procedure: Human pulmonary microvascular EC proliferation assay—For measuring cell growth, HPMVEC [5×10^3 cells/well] pretreated with various agents were incubated with 0.2 ml of serum-free media containing 100 nM VEGF for 24 h at 37° C. in 5% CO2195% air in 96-well culture plates. The in vitro cell proliferation assay was analyzed by measuring increases in cell number using the CellTiter96™ MTS assay (Promega, San Luis Obispo, Calif.) and read at 492 nm. Each assay was set up in triplicate, repeated at least five times and analyzed statistically by Student's t test (with statistical significance set at P<0.05).
(§2) Experiments were performed in triplicate. Error bars=standard deviation.
as §2

Akt = experiment: VEGF-induced Akt activation (phosphorylation) immunoblot in human pulmonary microvascular endothelial cells; type: cell-based; conditions: for VEGF-induced phosphorylation (activation) of Akt at serine 473 and threonine 308: human EC, VEGF 100 nM 5 minutes, 1 hour pre-treatment with 100 nM compound
Procedure: To assess the effects of methylnaltrexone (MNTX) on the VEGF-induced activation of the serine/threonine kinase Akt, a well-characterized endothelial cell line, human pulmonary microvascular endothelial cells (HPMVEC), was used. HPMVEC were serum starved for one hour and either untreated (control) or treated with VEGF (100 nM, 5 minutes) with or without pre-treatment (1 hour) with 100 nM MNTX, 100 ng/ml bevacizumab, 100 μM 5-FU, 100 nM MNTX+100 ng/ml bevacizumab or 100 nM MNTX+100 μM 5-FU. Cell lysates were obtained, run on SDS-PAGE and immunoblotted with anti-pSer^473Akt, anti-pThr^308Akt, anti-Akt or anti-actin antibody.
Cell Culture and Reagents—Human pulmonary microvascular EC were obtained from Cambrex (Walkersville, Md.) and cultured as previously described (Singleton et al. (2006), Microvasc. Res. 72(1-2):3-11; Singleton et al. (2007), Am. J. Respir. Cell Mol. Biol. 37(2):222-231) in EBM-2 complete medium (Cambrex) at 37° C. in a humidified atmosphere of 5% CO2, 95% air, with passages 6-10 used for experimentation. Unless otherwise specified, reagents were obtained from Sigma (St. Louis, Mo.). Vascular endothelial growth factor (VEGF) was purchased from R&D Systems (Minneapolis, Minn.). Methylnaltrexone bromide (MNTX) was purchased from Mallinckrodt Specialty Chemicals (Phillipsburg, N.J.). Bevacizumab was purchased from Genentech (South San Francisco, Calif.). 5-fluorouracil (5-FU) was purchased from Abraxis Pharmaceutical Products (Schaumburg, Ill.). Naltrexone and rapamycin were purchased from Sigma (St. Louis, Mo.). Reagents for SDS-PAGE electrophoresis were purchased from Bio-Rad (Richmond, Calif.) and Immobilon-P transfer membrane was purchased from Millipore (Millipore Corp., Bedford, Mass.). Rabbit anti-pSer^473Akt, rabbit anti-pThr^308Akt and rabbit anti-Akt antibodies were purchased from Cell Signaling Technologies (Danvers, Mass.). Mouse anti-β-actin antibody was purchased from Sigma (St. Louis, Mo.). Secondary horseradish peroxidase (HRP)-labeled antibodies were purchased from Amersham Biosciences (Piscataway, N.J.). […]

[3] = tested on: T1, mTOR Complex 1 (Homo sapiens); experiment: VEGF-induced mTOR complex formation, anti-Raptor immunoprecipitation and immunoblot; type: cell-based; conditions: human EC, VEGF 100 nM 5 minutes, 1 hour pretreatment with 100 nM compound
T1 construct: EC lysates were obtained and immunoprecipitated with anti-Raptor (mTOR Complex 1 component); endogenous in cells; host or cells: human endothelial cells (EC)
Procedure: as §1

[4] = tested on: human pulmonary microvascular endothelial cells (HPMVEC); experiment: Human pulmonary microvascular EC migration assay (VEGF-induced, transwell); type: cell-based; conditions: VEGF 100 nM
Procedure: Human pulmonary microvascular EC migration assay—Twenty-four transwell units with […] pore size were used for monitoring in vitro cell migration. HPMVEC (˜1×10^4 cells/well) were plated with various treatments to the upper chamber and VEGF (100 nM) was added to the lower chamber. Cells were allowed to migrate for 18 hours. Cells from the upper and lower chamber were quantitated using the CellTiter96™ MTS assay (Promega, San Luis Obispo, Calif.) and read at 492 nm. Percent migration was defined as the # of cells in the lower chamber divided by the number of cells in both the upper and lower chamber. Each assay was set up in triplicate, repeated at least five times and analyzed statistically by Student's t test (with statistical significance set at P<0.05).
Synergistic effects of MNTX with Temsirolimus on inhibition of VEGF—induced human EC proliferation and migration. Inhibition curves of human EC assayed for VEGF (100 nM)-induced proliferation and migration (24 hours) in the presence or absence of 0.1, 1.0, 10, 100 or 500 nM MNTX, Temsirolimus or 10 nM MNTX+Temsirolimus. MNTX inhibited EC VEGF-induced proliferation with an IC50 of ˜100 nM. Adding 10 nM MNTX to EC shifted the IC50 of Temsirolimus inhibition of VEGF-induced proliferation from ˜10 nM to ˜1 nM. Experiments were performed in triplicate. Error bars=standard deviation. […]

In the case of `C[N@+]1(CC2CC2)CC[C@]23c4c5ccc(O)c4O[C@H]2C(=O)CC[C@@]3(O)[C@H]1C5` [methylnaltrexone, N-methylnaltrexone], the solubility in water [1] is listed as “freely soluble in water”, the “VEGF-induced formation of mTOR Complex II” value (mTOR Complex 2) is listed as “inhibits” and the IC50 ([2]; Homo sapiens, Endothelial cell, 24 h, read-out: IC50 of inhibition of VEGF-induced EC proliferation) is listed as ~0.1 µM. For the same molecule, the “inhibition of VEGF-induced pSer473Akt and pThr308Akt immunoreactivity, dose relation” value (Akt; 1.0, 10, 100, 1000 nM MNTX) was “dose-dependent”, the “VEGF-induced phosphorylation (activation) of Akt at serine 473 and threonine 308” value (Akt) was “abrogated” and the “VEGF-induced formation of mTOR Complex I” value [3] was “inhibits”.

In the case of `CO[C@H]1C[C@@H]2CC[C@@H](C)[C@@](O)(O2)C(=O)C(=O)N2CCCC[C@H]2C(=O)O[C@H]([C@H](C)C[C@@H]2CC[C@@H](OC(=O)C(C)(CO)CO)[C@H](OC)C2)CC(=O)[C@H](C)/C=C(\C)[C@@H](O)[C@@H](OC)C(=O)[C@H](C)C[C@H](C)/C=C/C=C/C=C/1C` [temsirolimus], the “VEGF-induced formation of mTOR Complex II” value (mTOR Complex 2) is reported as “inhibits”, the IC50 ([2]; VEGF 100 nM, 24 hours, compound alone, read-out: IC50 of inhibition of VEGF-induced EC proliferation) is reported as ~0.01 µM and 0.01 µM and the IC50 ([2]; VEGF 100 nM, 24 hours, plus 10 nM MNTX, read-out: IC50 of inhibition of VEGF-induced EC proliferation with 10 nM MNTX added) is reported as ~0.001 µM. For the same molecule, the IC50 ([2]; VEGF 100 nM, 24 hours, presence of 3,4-Dephostatin, read-out: IC50 of inhibition of VEGF-induced EC proliferation in the presence of 3,4-Dephostatin) was 0.015 µM, the “VEGF-induced phosphorylation (activation) of Akt at serine 473 and threonine 308” value (Akt) was “did not inhibit” and the “VEGF-induced formation of mTOR Complex I” value [3] was “mTOR complex II only”.

With `CN(N=O)c1ccc(O)c(O)c1` [3,4-dephostatin] the “effect of PTP inhibitor on VEGF-induced EC proliferation” value ([2]; VEGF 100 nM, 24 hours, with Temsirolimus with or without 10 nM MNTX) was “inhibited” and the “effect of PTP inhibitor on VEGF-induced EC migration” value ([4]; 24 hours, with Temsirolimus with or without 10 nM MNTX) was “inhibited”.

For rapamycin, the “inhibition of VEGF-induced endothelial cell proliferation” value ([2]; VEGF 100 nM, 0.01, 0.1, 1.0 or 10 nM rapamycin) was “dose-dependent inhibition” and the “inhibition of VEGF-induced endothelial cell migration” value ([4]; 0.01, 0.1, 1.0 or 10 nM rapamycin) was “dose-dependent inhibition”.
